# Measured values as given in paper PMC3409241, “Probing Cocaine-Antibody Interactions in Buffer and Human Serum” (PLoS ONE, 2012).
# “Also recorded” adds a separate entry of the source. Counter-ions that a name gives are not always drawn. Like-named read-outs stand apart in the source and are kept apart here.
# Columns and labels:
# mAb08 [1] = test: ITC titration of drug into mAb08; assay type: binding, mouse; conditions: 25°C
# Description: (§1) ITC experiments were performed using an ITC-200 micro calorimeter from MicroCal (Northampton, MA, USA). Samples were dialyzed against PBS buffer and degassed prior to loading into the ITC cell. The drug samples were prepared in the same buffer to avoid buffer mismatch. Titrations were performed at 25°C by injecting consecutive aliquots (2 µl) of 45 µM drug into the ITC cell (volume of 200 µl) containing 3 µM antibody at 500 rpm stirring rate. Intervals between injections were set to be 150 sec in order to allow the heat from each injection to return to the baseline. Heats of dilution control experiments were performed by titrating ligand into buffer. The heats associated with the control titration were subtraced from the raw binding data prior to fitting. The data were fitted assuming that the antibody binding sites are identical using a single set binding model included in the Origin 7.0 software provided by the manufacturer. ITC directly measures the change in heat associated with two components going from the free to the bound state. Thus the observed molar change in enthalpy (ΔHobs) can be determined.
# The binding isotherms, which is the incremental heat release as a function of complex formation is shown in the lower panel of Fig. 3. The solid line corresponds to the fit to a binding model to yield the equilibrium binding constant, K D, and the binding parameters, n and ΔH obs. The results of data analysis are shown in Table 1 along with the derived parameters, ΔGcal and ΔScal.
# (§2) The thermodynamic parameters associated with the binding of cocaine to human serum and human serum albumin were investigated using ITC. We titrated 45 µM of cocaine to 20% of control human serum (no anti-cocaine antibodies) dialyzed against PBS (Figure 4A).
# f-mAb08 = test: MST of fluorescently labeled f-mAb08 binding to drugs; set-up: species or system mouse; conditions: 25°C
# Description: The fluorescent labeling was performed with a reactive RED dye (NT-647) following the manufacturer’s protocol (Nanotemper, Germany). […] Free dye was removed by purification on a Sephadex G-25 column provided with the kit. MST assays were carried out as described in Jerabek-Willesmsen et al.. Serial dilutions of unlabeled drug or antibody samples were mixed with 20 nM of NT-647-labeled proteins in PBS buffer (25 mM phosphate pH 7.4, 150 mM NaCl, 0.05% Tween-20) and incubated for 20 minutes. About 10 µl of sample was loaded into standard monolith NT capillaries provided by the manufacturer and assays were performed in a Nanotemper Monolith NT.015T. The Red fluorescence was exited using a light-emitting diode, and its emission was recorded at a focused location of capillary. Using another infrared laser diode a microscopic temperature gradient was created at the same location and the fluorescence depletion was measured. By plotting the concentrations of unlabeled binding partner with the changes in fluorescent thermophoresis signal, K D values were determined using the Nanotemper analysis software. The overlay diagram was made by normalizing the data to fraction bound.
# mAb08 [2] = test: SPR competitive inhibition of mAb08 binding to immobilized BSA-SNC; set-up: species or system mouse; conditions: 50 nM mAb08 mixed with increasing drug concentrations
# [3] = test system: RR6 enriched polyclonal antibodies; test: SPR competitive inhibition of RR6 enriched polyclonal antibody binding to immobilized BSA-SNC; set-up: species or system mouse
# Description: (§3) Data was collected using a medium collection rate at 25°C. The instrument was primed a few times using the running buffer before injecting the concentration series. For every binding cycle, the antibody samples were injected for 1.5 minutes at 50 µl/min flow rate and dissociation was monitored for 5 minutes. The bound antibody was releasedwith two 15 µl injections of pH 1.5 glycine buffer. The kinetic constants of binding were obtained using a 1∶1 Langmuir binding model. The raw data sets were analyzed using BIAevaluation (version 3.2) provided by BIAcore Inc. (Uppsala, Sweden). After the subtraction of background responses from the control flow cells, the association and dissociation phases were globally fitted for all the sensorgrams simultaneously, omitting any noisy data at the beginning and end of the analyte injection.
# [4] = cited from earlier work
# Clone 402 = test: ITC titration of cocaine into Clone 402 antibody; assay type: binding
# Description: as §1
# [5] = target: enriched polyclonal antibodies purified from mouse or patient serum; test: SPR competitive inhibition of enriched polyclonal antibody binding to immobilized BSA-SNC
# Description: as §3
# human serum albumin = human serum albumin (Homo sapiens, UniProt P02768); test: ITC titration of cocaine into human serum albumin; assay type: binding; conditions: 5 µM HSA against 45 µM cocaine in PBS
# Chain of human serum albumin (P02768 25-609): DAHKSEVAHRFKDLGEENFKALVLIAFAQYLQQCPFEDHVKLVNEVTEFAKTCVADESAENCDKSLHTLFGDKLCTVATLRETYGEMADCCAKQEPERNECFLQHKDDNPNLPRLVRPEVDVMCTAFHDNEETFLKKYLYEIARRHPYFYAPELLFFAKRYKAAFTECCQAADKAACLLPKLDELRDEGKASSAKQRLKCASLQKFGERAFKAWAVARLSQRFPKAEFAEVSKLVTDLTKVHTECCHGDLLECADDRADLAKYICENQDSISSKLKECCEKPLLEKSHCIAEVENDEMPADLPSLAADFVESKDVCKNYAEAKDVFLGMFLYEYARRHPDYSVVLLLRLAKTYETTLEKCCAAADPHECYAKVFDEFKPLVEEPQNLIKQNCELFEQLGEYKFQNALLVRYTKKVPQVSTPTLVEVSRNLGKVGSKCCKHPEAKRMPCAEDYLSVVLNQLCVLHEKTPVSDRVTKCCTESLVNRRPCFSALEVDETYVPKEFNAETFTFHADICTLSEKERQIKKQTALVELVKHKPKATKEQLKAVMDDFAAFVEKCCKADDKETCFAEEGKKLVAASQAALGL
# Description: as §1, §2
# nonspecific human IgG = test: ITC of cocaine in presence of nonspecific human IgG; assay type: binding; conditions: 7 µM non-specific human IgG with mAb08
# Description: as §1, §2
# 20% human serum = test: ITC titration of cocaine into 20% control human serum; assay type: binding
# Description: as §1, §2
# cAMP kinase = test system: cAMP kinase; set-up: method as in PMID 20981028; conditions: in presence of 30% human serum; cited from earlier work
# [6] = 20 nM f-mAb08, 20% control human serum, read-out: K D ^2 (nM) (Serum%)
# [7] = 20 nM f-mAb08, PBS (phosphate buffer), read-out: K D ^1 (nM) Enriched IgG
smiles,measurement,setting,value
CN1[C@H]2CC[C@@H]1[C@@H](C(=O)O)[C@@H](OC(=O)c1ccccc1)C2 [Benzoylecgonine],Kd,"mAb08 [1]; PBS pH 7.4, sample mAb08",18.6 ± 48.7 nM
same,ΔGcal,"mAb08 [1]; PBS pH 7.4, sample mAb08",-10.5 kcal/mol
same,ΔHobs,"mAb08 [1]; PBS pH 7.4, sample mAb08",-21.66 ± 0.61 kcal/mol
same,ΔScal,"mAb08 [1]; PBS pH 7.4, sample mAb08",−37.3 cal.mol^−1K^−1
same,Kd,f-mAb08; [6],98 nM
same,Kd,f-mAb08; [7],23.7 nM
same,IC50,mAb08 [2],123 nM
same,IC50,mAb08 [2]; listed as BE,~123 nM
same,inhibition of RR6 enriched fraction binding to BSA-SNC,[3],did not show any significant inhibition
same,elimination half-life,[4],6 to 8 h
CCOC(=O)[C@@H]1C2CCC(C[C@@H]1OC(=O)c1ccccc1)N2C (stereo partly drawn) [Cocaethylene],Kd,"mAb08 [1]; PBS pH 7.4, sample mAb08",34.4 nM
same,ΔGcal,"mAb08 [1]; PBS pH 7.4, sample mAb08",-10.2 kcal/mol
same,ΔHobs,"mAb08 [1]; PBS pH 7.4, sample mAb08",-21.16 ± 0.48 kcal/mol
same,ΔScal,"mAb08 [1]; PBS pH 7.4, sample mAb08",−36.8 cal.mol^−1K^−1
same,Kd,f-mAb08; [6],169 nM
same,Kd,f-mAb08; [7],47 nM
"COC(=O)[C@H]1[C@@H](OC(=O)c2ccccc2)C[C@@H]2CC[C@H]1N2C [Cocaine, Cocaine hydrochloride]",ΔGcal,"Clone 402; ITC, 25°C, sample Clone 402",-6.8 kcal/mol
same,ΔHobs,"Clone 402; ITC, 25°C, sample Clone 402",-26.4 ± 1.93 kcal/mol
same,ΔScal,"Clone 402; ITC, 25°C, sample Clone 402",−65.6 cal.mol^−1K^−1
same,Kd,"Clone 402; ITC, 25°C, sample Clone 402, read-out: K D",10000 nM
same,Kd,"Clone 402; clone 402 (Arista Biologicals), read-out: affinity to cocaine",~10000 nM
same,Kd,"mAb08 [1]; PBS pH 7.4, sample mAb08",2.5 ± 6.8 nM
same,ΔGcal,"mAb08 [1]; PBS pH 7.4, sample mAb08",-11.7 kcal/mol
same,ΔHobs,"mAb08 [1]; PBS pH 7.4, sample mAb08",-28.08 ± 0.37 kcal/mol
same,ΔScal,"mAb08 [1]; PBS pH 7.4, sample mAb08",−54.8 cal.mol^−1K^−1
same,Kd,mAb08 [1]; sample mAb08+7 µM hIgG,4 ± 10.5 nM
same,ΔGcal,mAb08 [1]; sample mAb08+7 µM hIgG,-11.5 kcal/mol
same,ΔHobs,mAb08 [1]; sample mAb08+7 µM hIgG,-28.58 ± 0.35 kcal/mol
same,ΔScal,mAb08 [1]; sample mAb08+7 µM hIgG,−57.4 cal.mol^−1K^−1
same,ΔHobs,"mAb08 [1]; sample mAb08+7 µM hIgG, listed as cocaine",-28 kcal/mol
same,Kd,mAb08 [1]; sample mAb08+20% Serum,113 nM
same,ΔGcal,mAb08 [1]; sample mAb08+20% Serum,-9.5 kcal/mol
same,ΔHobs,mAb08 [1]; sample mAb08+20% Serum,-33.19 ± 0.61 kcal/mol
same,ΔScal,mAb08 [1]; sample mAb08+20% Serum,−79.5 cal.mol^−1K^−1
same,Kd,"mAb08 [1]; sample mAb08+20% Serum, listed as cocaine",~113 nM
same,IC50,[5],100 to 500 nM
same,Kd,f-mAb08; [6],105 nM
same,Kd,"f-mAb08; 20 nM f-mAb08, 50% control human serum, listed as cocaine, read-out: K D ^2 (nM) (Serum%)",~100 nM
same,Kd,"f-mAb08; 20 nM f-mAb08, 50% control human serum, read-out: K D ^2 (nM) (Serum%)",128 nM
same,Kd,f-mAb08; [7],7.8 nM
same,IC50,mAb08 [2],~100 nM
same,IC50,mAb08 [2]; listed as cocaine,~104 nM
same,elimination half-life,[4]; depends on route of administration,1 to 1.5 h
same,binding to human serum albumin,human serum albumin,very little interaction; also recorded: no detectable binding; also recorded: does not bind strongly
same,binding to nonspecific human IgG,nonspecific human IgG,very little interaction; also recorded: absence of non-specific cocaine binding
same,Kd,20% human serum; 45 µM cocaine to 20% control human serum,~2000 nM
same,Kd,"20% human serum; 25°C, sample 20% Serum",2000 nM
same,ΔGcal,"20% human serum; 25°C, sample 20% Serum",-7.8 kcal/mol
same,ΔHobs,"20% human serum; 25°C, sample 20% Serum",-21.82 ± 3.16 kcal/mol
same,ΔScal,"20% human serum; 25°C, sample 20% Serum",−47.1 cal.mol^−1K^−1
O=c1c(O)c(-c2ccc(O)c(O)c2)oc2cc(O)cc(O)c12 [quercetin],fold decrease in affinity,cAMP kinase,400 fold
